Read-outs that look alike come from different tables or passages of the source.
Tests used:
human LXRβ = molecular target: T1, human LXRβ (Homo sapiens, UniProt P55055); assay: Ligand-binding test procedure for human LXRβ (3H T0901317 tracer, flash plates)
T1 construct: biotin (biotinylated); made in house; host or cells: E. coli (crude extract)
T1 sequence (P55055 1-460): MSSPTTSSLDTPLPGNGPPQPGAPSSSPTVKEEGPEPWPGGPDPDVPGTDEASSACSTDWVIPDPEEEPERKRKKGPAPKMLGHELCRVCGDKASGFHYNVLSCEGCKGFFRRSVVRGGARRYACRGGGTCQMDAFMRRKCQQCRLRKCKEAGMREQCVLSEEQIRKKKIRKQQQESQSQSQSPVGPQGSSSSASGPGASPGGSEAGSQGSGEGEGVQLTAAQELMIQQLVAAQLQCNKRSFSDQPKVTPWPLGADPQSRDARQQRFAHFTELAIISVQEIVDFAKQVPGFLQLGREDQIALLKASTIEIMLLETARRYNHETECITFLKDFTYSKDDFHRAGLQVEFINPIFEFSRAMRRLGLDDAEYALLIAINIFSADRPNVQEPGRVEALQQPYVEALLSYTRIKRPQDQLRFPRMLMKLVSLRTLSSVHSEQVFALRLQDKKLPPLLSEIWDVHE

ABCA1 gene = assay: Quantitative analysis of ABCA1 gene regulation in THP-1 cells (real-time PCR); format: cell-based, human; settings: read-out: EC50 ABCA1
Experimental: The compounds of formula (I) effect on the regulation of the ABCA1 gene was evaluated using the following procedure.
The THP-1 monocytic cell line (ATCC # TIB-202) was obtained from American Type Culture Collection (Manassas, Va.) and cultured in RPMI 1640 medium (Gibco, Carlsbad, Calif.) containing 10% FBS, 2 mM L-glutamine, and 55 uM beta-Mercaptoethanol (BME). […] Differentiated THP-1 cells were treated with test compounds or ligands dissolved in DMSO (Sigma, D-8779) in culture medium lacking phorbal ester. […] Unstimulated cells treated with vehicle were included as negative controls on each plate. An LXR agonist reference, N-(2,2,2-trifluoro-ethyl)-N-[4-(2,2,2-trifluoro-1-hydroxy-1-trifluoromethyl-ethyl)-phenyl]-benzenesulfonamide (Schultz, Joshua R., Genes & Development (2000), 14(22), 2831-2838), was dosed at 1.0 uM and served as a positive control. […] Results of antagonist analysis are expressed as % antagonism and IC50 (in μM).
Total cellular RNA was isolated from treated cells cultured in 96-well plates using PrepStation 6100 (Applied Biosystems, Foster City, Calif.), according to the manufacturer's recommendations. RNA was resuspended in ribonuclease-free water and stored at −70° C. prior to analysis. RNA concentrations were quantitated with RiboGreen test procedure, #R-11490 (Molecular Probes, Eugene, Oreg.).
Gene-specific mRNA quantitation was performed by real-time PCR with the Perkin Elmer Corp. chemistry on an ABI Prism 7700 Sequence detection system (Applied Biosystems, Foster City, Calif.) according to the manufacturer's instructions. Samples (50-100 ng) of total RNA were assayed in duplicate or triplicate in 50 μl reactions using one-step RT-PCR and the standard curve method to estimate specific mRNA concentrations. Sequences of gene-specific primer and probe sets were designed with Primer Express Software (Applied Biosystems, Foster City, Calif.). […] RT and PCR reactions were performed according to PE Applied Biosystem's protocol for Taqman Gold RT-PCR or Qiagen's protocol for Quantitect probe RT-PCR. Relative levels of ABCA1 mRNA are normalized using GAPDH mRNA or 18S rRNA probe/primer sets purchased commercially (Applied Biosystems, Foster City, Calif.).
Mean, standard deviation and statistical significance of duplicate evaluations of RNA samples were assessed using ANOVA, one-way analysis of variance using SAS analysis.

human LXRα = molecular target: T2, human LXRα (Homo sapiens, UniProt Q13133); assay: Ligand-binding test procedure for human LXRα (3H T0901317 tracer, flash plates); settings: biotinylated hLXRα, tracer 3H T0901317
T2 construct: biotin (biotinylated); made in house; host or cells: E. coli (crude extract)
T2 sequence (Q13133 1-447): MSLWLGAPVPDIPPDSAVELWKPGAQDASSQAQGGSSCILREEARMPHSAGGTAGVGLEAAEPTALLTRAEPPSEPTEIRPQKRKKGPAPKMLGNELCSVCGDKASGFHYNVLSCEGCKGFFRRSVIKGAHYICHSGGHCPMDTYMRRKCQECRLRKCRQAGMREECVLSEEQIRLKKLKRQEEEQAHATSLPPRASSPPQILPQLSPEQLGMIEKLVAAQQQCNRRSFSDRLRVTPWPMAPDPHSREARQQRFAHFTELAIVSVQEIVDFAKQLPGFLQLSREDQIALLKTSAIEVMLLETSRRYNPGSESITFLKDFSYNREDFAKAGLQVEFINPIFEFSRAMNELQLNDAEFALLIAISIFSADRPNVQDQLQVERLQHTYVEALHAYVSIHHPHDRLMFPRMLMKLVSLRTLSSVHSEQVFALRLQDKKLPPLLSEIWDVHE

[1] = Gene regulation by LXR (Human), differentiated THP-1 cells, 18 hrs, ABCA1 mRNA

SMILES	IC50 (human LXRβ)	EC50 (ABCA1 gene; [1])	IC50 (human LXRα)	EC50 (ABCA1 gene; Homo sapiens, THP-1, 18 h)
Cc1nc2c(C(F)(F)F)cccc2n1-c1cccc(OCc2cccc(S(C)(=O)=O)c2)c1 [Example 107, 2-methyl-1-(3-{[3-(methylsulfonyl)benzyl]oxy}phenyl)-4-(trifluoromethyl)-1H-benzimidazole]	120 nM	3530 nM	1960 nM	–
Cc1nc2c(C(F)(F)F)cccc2n1-c1cccc(Oc2cccc(S(=O)(=O)C3CC3)c2)c1 [Example 38, 1-{3-[3-(cyclopropylsulfonyl)phenoxy]phenyl}-2-methyl-4-(trifluoromethyl)-1H-benzimidazole]	5.8 nM	650 nM	141 nM	–
Cc1nc2c(C(F)(F)F)cccc2n1-c1ccc(Oc2cc(F)cc(S(C)(=O)=O)c2)cc1 [Example 66, 1-{4-[3-fluoro-5-(methylsulfonyl)phenoxy]phenyl}-2-methyl-4-(trifluoromethyl)-1H-benzimidazole]	51 nM	355 nM	261 nM	–
CCS(=O)(=O)c1cccc(Oc2ccc(-n3c(C(F)(F)F)nc4c(C(F)(F)F)cccc43)cc2)c1 [Example 71, 1-{4-[3-(ethylsulfonyl)phenoxy]phenyl}-2,4-bis(trifluoromethyl)-1H-benzimidazole]	83 nM	–	1100 nM	290 nM
Cc1nc2c(C(F)(F)F)cccc2n1-c1cccc(Oc2cccc(S(=O)(=O)CCCS(C)(=O)=O)c2)c1 [Example 76, 2-methyl-1-[3-(3-{[3-(methylsulfonyl)propyl]sulfonyl}phenoxy)phenyl]-4-(trifluoromethyl)-1H-benzimidazole]	20 nM	–	319 nM	155 nM
CS(=O)(=O)c1cc(F)cc(Oc2ccc(Cl)c(-n3cnc4c(C(F)(F)F)cccc43)c2)c1 [Example 82, 1-{2-chloro-5-[3-fluoro-5-(methylsulfonyl)phenoxy]phenyl}-4-(trifluoromethyl)-1H-benzimidazole]	4.9 nM	–	102 nM	1210 nM

From US20110034526A1, “Benzimidazole Compounds” (Wyeth LLC, priority 2007, published 2011)
